Measurements from US5041426A, “Immune system enhancing 3-β-d-ribofuranosylthiazolo[4,5-d]pyridimine nucleosides and nucleotides” (priority 1988, dated 1991).
“And” between values parts separate entries of the source, which are not always exact repeats. Equal entries are not always repeated. Where two headings read alike, the source gives them in different places.

Tests used:
[1] = system: YAC-1 cells; assay: In vitro potentiation of murine natural killer cell activity (mouse spleen cells, 51Cr release); format: cell-based; conditions: Table 21; 0.5 mM
[2] = system: YAC-1 cells; assay: as above; format: cell-based
Procedure: After incubation the cytotoxicity of the treated and untreated cells was determined against YAC-1 cells.
^a Spleen cells from mice were treated with 0.05 mM concentration of
amino acids and 5 × 10^-5 M Mercaptoethanol. The effector cells
were then tested for their cytotoxic activity against YAC1 target cells i
4 hr ^51 Cr release assay.
^a Spleen cells from mice were incubated in the absence and presence
of various compounds. After incubation, cells were suspended in complete
medium and then their cytotoxic activity was determined against YAC1
target cells as described in the text

[3] = system: K562 tumor cells; assay: In vitro augmentation of human natural killer cell activity (PBMNC, 51Cr release); format: cell-based; conditions: Table 22
Procedure: The natural killer cell activity in human cells was also measured. In conducting these tests peripheral blood mononuculear cells (PBMNC) were isolated on Ficoll-Hypaque gradient, washed three times in Hanks and re-suspended in RPMI-1640 containing 10% human AB serum as described in Rosenberg, S. A.: Journal American Medical Association, 256:3117, 1986 and the above referred to reference to Djeu, et al. Peripheral blood mononuclear cells (PBMNC) from eleven different donors were treated with compound 7 as described in Djeu, et al. as well as Sharma, B., Odom, L. F.: Cancer Immunol. Immunother. 7.93, 1979, and Sharma, B., Odom, L. F.: Cancer Research 44:3258, 1984.
The PBMNC cells were incubated with compound 7 at 37° C. for 20 to 68 hours in a 5% CO2 humid atmosphere and after incubation the cytotoxicity was determined against K562 tumor cells.
^a Peripheral blood mononuclear cells were treated with 0.05 - 0.4 mM
concentration of compound 7 in RPM11640 containing 10% human AB serum for
20 to 68 hours. After the treatment, effector cells were tested against
K562 target cells in 4 hour ^51 Cr release assay as described in
Sharma et al. above. The data shown here represent the maximum response.
K562 target cells in 4 hour ^51 Cr release assay as previously
described above in Sharma et al. The data represent the maximum response.
Other Nucleosides and Nucleotides of the invention were tested for their activity in human natural killer cells […] as per example 33 above.

[4] = system: San Angelo Virus; format: in vivo, mouse; conditions: saline at -24 h, of mice that died
[5] = system: Banzi Virus; format: in vivo, mouse; conditions: placebo at -24 h, of mice that died
[6] = system: Influenza B Virus; assay: Antiviral activity against Influenza B virus infection in mice; format: in vivo, mouse
Procedure: Compound 7 was tested therapeutically against Influenza B Virus Infection in Mice. In addition to a saline control Ribavirin, a known antiviral, was utilized for test purposes.
hours previrus inoculation.
^c p < .001 twotailed ttest.

[7] = system: San Angelo Virus; format: in vivo, mouse; conditions: 200 mg/kg/day; half-daily doses twice a day for 7 days; Time (21 days)

## O=C(OC[C@H]1O[C@@H](n2c(=O)sc3c(=O)[nH]cnc32)[C@H](OC(=O)c2ccccc2)[C@@H]1OC(=O)c1ccccc1)c1ccccc1 [Compound 9, 3-(2,3,5-Tri-O-benzoyl-β-D-Ribofuranosyl)thiazolo[4,5-d] pyrimidine-2,7(6H)-dione]
[1]
  % Natural Killer Cell Cytotoxicity: 13% and 6.5%
[2]; Table 21, 0.05 mM
  % Natural Killer Cell Cytotoxicity: 3% and 2% and 0.31%
[3]; 0.05 mM
  % Natural Killer Cell Cytotoxicity: 6%
[3]; 0.2 mM
  % Natural Killer Cell Cytotoxicity: 43%

## O=c1[nH]c(=O)c2sc(=O)n([C@@H]3O[C@H](CO)[C@@H](O)[C@H]3O)c2[nH]1 [Compound 8, 3-β-D-Ribofuranosylthiazolo[4,5-d]pyrimidine-2,5,7(4H,6H)-trione]
[3]; 0.2 mM
  % Natural Killer Cell Cytotoxicity: 5%

## Poly I:C [reference compound]
[2]; C57BL/6J spleen cells, treatment 0 h, compound 7 at 0.05 mM
  % Natural Killer Cell Cytotoxicity: 18%
[2]; C57BL/6J spleen cells, treatment 0 h, compound 7 at 0.05 mM, listed as Poly I:
  % Natural Killer Cell Cytotoxicity: 22%
[2]; C57BL/6J spleen cells, treatment 20 h, compound 7 at 0.05 mM
  % Natural Killer Cell Cytotoxicity: 13%
[2]; C57BL/6J spleen cells, treatment 20 h, compound 7 at 0.05 mM, listed as Poly I:
  % Natural Killer Cell Cytotoxicity: 6%
[2]; C57BL/6J spleen cells, treatment 44 h, compound 7 at 0.05 mM
  % Natural Killer Cell Cytotoxicity: 14%
[2]; C57BL/6J spleen cells, treatment 44 h, compound 7 at 0.05 mM, listed as Poly I:
  % Natural Killer Cell Cytotoxicity: 13%
[2]; CBA/CaJ spleen cells, treatment 0 h, compound 7 at 0.05 mM
  % Natural Killer Cell Cytotoxicity: 14.5% and 22%
[2]; CBA/CaJ spleen cells, treatment 20 h, compound 7 at 0.05 mM
  % Natural Killer Cell Cytotoxicity: 18% and 31%
[2]; CBA/CaJ spleen cells, treatment 44 h, compound 7 at 0.05 mM
  % Natural Killer Cell Cytotoxicity: 19% and 9%

## Nc1nc2c(sc(=O)n2[C@@H]2O[C@@H]3COP(=O)(O)O[C@H]3[C@H]2O)c(=O)[nH]1 [Compound 12]
[3]; 0.2 mM
  % Natural Killer Cell Cytotoxicity: 43%
[3]; 0.4 mM, Monophosphate Ammonium Salt
  % Natural Killer Cell Cytotoxicity: 39% and 22%

## NC(=O)c1ncn([C@@H]2O[C@H](CO)[C@@H](O)[C@H]2O)n1 [Ribavirin]
[4]; Ribavirin 25 mg/kg/day days 0-6
  Mean Survival Time: 8.1 ± 0.7 days
[4]; Ribavirin 50 mg/kg/day days 0-6
  Mean Survival Time: 9.0 ± 1.2 days
[5]; Ribavirin 100 mg/kg days 0-6
  Mean Survival Time: 8.5 ± 1.0 days
[5]; Ribavirin 200 mg/kg days 0-6
  Mean Survival Time: 9.1 ± 0.8 days
[6]; 100 mg/kg/day, half-daily doses twice a day for 7 days
  Mean Survival Time: 8.0 ± 0.0 days
[6]; Table 12
  efficacy against influenza B (in words): significant antiviral activity
[7]
  Mean Survival Time: 12.3 ± 2.9 days

## Nc1nc2c(sc(=S)n2[C@@H]2O[C@H](CO)[C@@H](O)[C@H]2O)c(=O)[nH]1 [Compound 16, 5-Amino-2-thioxo-3-β -D-ribofuranosylthiazolo[4,5-d]pyrimidin-7(6H)-one]
[1]
  % Natural Killer Cell Cytotoxicity: 38%

## Nc1nc2c(sc(=O)n2[C@@H]2O[C@H](CO)[C@@H](O)[C@H]2O)c(=S)[nH]1 [Compound 19, 5-Amino-7(6H)-thioxo-3-β-D-ribofuranoxylthiazolo[4,5-d]pyrimidin-2-one]
[3]; 0.2 mM
  % Natural Killer Cell Cytotoxicity: 7%
